The target in one assay is T1, dopamine D-2 receptors (Rattus norvegicus, UniProt P61169).
T1 construct: striatal tissue is dissected and weighed; from tissue; host or cells: corpus striatum of male Wistar rats, crude membranes
The assay is described as follows: Inhibition of 3H-spiperone binding to dopamine D-2 receptors in rat corpus striatum in vitro. Particulars: 3H-spiperone 0.5 nM, rat corpus striatum, 37° C., 10 min; read-out: Receptor Binding; IC50 DA D-2 3H-Spi. The protocol:
INHIBITION OF ^3 H-SPIPERONE BINDING TO DOPAMINE D-2 RECEPTORS IN RAT CORPUS STRIATUM IN VITRO
By this method the inhibition by drugs of the binding of ^3 H-spiperone (0.5 nM) to dopamine D-2 receptors in membranes from rat corpus striatum is determined in vitro.
Male Wistar (Mol:Wistar) rats (125-250 g) are sacrificed and striatal tissue is dissected and weighed. The tissue is homogenized (Ultra Turrax, 10 sec.) in 10 ml of ice-cold 50 mM K-phosphate buffer pH 7.4 (at 25° C.). The homogenate is centrifuged twice at 20,000 g for 10 min. at 4° C. with rehomogenization of the pellet in 10 ml ice-cold buffer. The final pellet is homogenized in 1300 vol (w/v) ice-cold buffer.
Incubation tubes kept on ice in triplicate receive 100 μl of drug solution in water (or water for total binding) and 4000 μl of tissue suspension (final tissue content corresponds to 3.08 mg original tissue). The binding experimental is initiated by addition of 100 μl of ^3 H-spiperone (final concentration 0.5 nM) and by placing the tubes in a 37° C. water bath. After incubation for 10 min. the samples are filtered under vacuum (0-50 mBar) through Whatman GF/F filters (25 mm). The tubes are rinsed with 5 ml ice-cold buffer which are then poured on the filters. Thereafter, the filters are washed with 2×5 ml of buffer. The filters are placed in counting vials and 4 ml of appropriate scintillation fluid (e.g. Picofluor ™15) are added. After shaking for 1 h and storage 2 hrs in the dark the content of radioactivity is determined by liquid scintillation counting. Specific binding is obtained by subtracting the nonspecific binding in the presence of 10 μM of 6,7-ADTN.
For determination of the inhibition of binding five concentrations of drugs covering 3 decades are used.
^3 H-Spiperone=[phenyl-4-^3 H]-spiperone from Amersham International plc. England, specific activity 15-25 Ci/mmol.

Another assay concerns the target T2, 5-HT2 receptors (Rattus norvegicus, UniProt P14842).
T2 construct: cortical tissue is dissected and weighed; from tissue; host or cells: cortex of male Wistar rats, crude membranes
The assay is described as follows: Inhibition of 3H-ketanserin binding to 5-HT2 receptors in rat cortex in vitro. Particulars: for IC50: 3H-Ketanserin 0.5 nM, rat cortex, 37° C., 30 min, read-out: Receptor Binding, IC50 5-HT2 3H-Ket.

The target in the next assay is α1 adrenoceptors. The experiment in a line: Inhibition of 3H-prazosin binding to α1 adrenoceptors in rat brain in vitro. Particulars: for IC50: 3H-Prazosin 0.25 nM, rat brain, 25° C., 20 min, read-out: Receptor Binding, IC50 α1 3H-Praz.
In another assay the test system is male albino BKW mice. The experiment in a line: Light/dark discrimination test in mice. In kind it is in vivo, mouse. Particulars: intraperitoneally 45 min before testing, doses from 0.01 to 1 mg/kg. How it is done: LIGHT/DARK DISCRIMATION TEST IN MICE
This test was carried out in accordance with the method described in Costall et al. Br. J. Pharmacol. 90 275P (1987).
The test was conducted using a two compartment activity box in which the actions of anxiolytic compounds to reduce aversion against a brightly-lit environment may be readily detected. The box is designed as an open-top experimental box (45*27*27 cm) one third of which was partitioned from the rest, painted black and illuminated with red light. The remainder of the box was painted white and brightly illuminated (1000 W). The floor of each area was lined into squares. Behavioral changes were determined for each area from video recordings for periods of 40 min.
Data obtained from dose groups of 5 animals (male albino BKW mice, 25-30 g) were analysed using single factor analysis of variance, and Dunnett's t-test. Test compounds were given intraperitoneally 45 min before testing.

A further assay relates to Wistar WU rats. The assay is described as follows: Light/dark discrimination test in rats. The assay is classed as in vivo, rat. The settings on record: doses from 0.1 to 1 mg/kg. How it is done: LIGHT/DARK DISCRIMINATION TEST IN RATS
The test was carried out similarly to the test in mice described above, however modified in accordance with F. C. Colpaert et al., Psychopharmacology (1985) 86:45-54. The test used Wistar WU rats.

The conditions of assay [1]: Meert and Janssen, Drug Dev. Res. 1989, 18, 119; cited from earlier work.

T1 sequence (P61169 whole entry): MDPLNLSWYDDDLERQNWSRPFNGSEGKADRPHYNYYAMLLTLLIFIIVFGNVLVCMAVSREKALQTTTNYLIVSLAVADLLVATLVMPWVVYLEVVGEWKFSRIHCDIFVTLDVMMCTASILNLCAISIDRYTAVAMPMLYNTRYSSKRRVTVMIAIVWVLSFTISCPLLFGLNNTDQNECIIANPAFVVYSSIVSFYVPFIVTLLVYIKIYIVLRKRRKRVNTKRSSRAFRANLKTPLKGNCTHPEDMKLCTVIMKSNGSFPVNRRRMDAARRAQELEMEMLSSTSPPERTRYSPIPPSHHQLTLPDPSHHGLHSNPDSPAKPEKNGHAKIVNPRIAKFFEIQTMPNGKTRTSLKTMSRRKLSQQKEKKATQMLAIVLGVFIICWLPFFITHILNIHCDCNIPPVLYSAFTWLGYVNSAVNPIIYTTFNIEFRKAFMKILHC
T2 sequence (P14842 whole entry): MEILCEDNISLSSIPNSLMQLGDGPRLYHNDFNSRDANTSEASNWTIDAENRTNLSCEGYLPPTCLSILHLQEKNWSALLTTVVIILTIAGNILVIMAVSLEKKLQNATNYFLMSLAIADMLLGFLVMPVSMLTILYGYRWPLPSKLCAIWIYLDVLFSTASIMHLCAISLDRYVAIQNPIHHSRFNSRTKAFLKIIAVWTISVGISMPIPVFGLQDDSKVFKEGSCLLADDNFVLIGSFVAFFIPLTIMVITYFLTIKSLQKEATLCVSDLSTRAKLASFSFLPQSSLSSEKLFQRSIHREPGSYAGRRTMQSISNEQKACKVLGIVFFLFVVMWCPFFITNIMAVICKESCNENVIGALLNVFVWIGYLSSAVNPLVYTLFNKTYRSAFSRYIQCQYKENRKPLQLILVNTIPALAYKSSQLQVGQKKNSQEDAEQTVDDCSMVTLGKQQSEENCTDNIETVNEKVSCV

Turning to `O=C1N(CCO)CCN1CCN1CCN([C@@H]2C[C@@H](c3ccc(F)cc3)c3cc(Cl)ccc32)CC1` (relative stereo) [Compound 37, Trans-1-[2-[4-[5-chloro-3-(4-fluorophenyl)-2,3-dihydro-1H-inden-1-yl]piperazin-1-yl]-ethyl]-3-(2-hydroxyethyl)-2-imidazolidinone], the values for the IC50 on dopamine D-2 receptors, at 5-HT2 receptors and at α1 adrenoceptors were 320 nM, 6.1 nM and 710 nM, respectively.

As to `Fc1ccc([C@@H]2C[C@@H](N3CCN(CCN4CCCC4=S)CC3)c3ccc(Cl)cc32)cc1` (relative stereo) [Compound 38], the figures for the IC50 at dopamine D-2 receptors, on 5-HT2 receptors and at α1 adrenoceptors were 290 nM, 5.3 nM and 260 nM, respectively.

For `Cc1ccc2c(c1)[C@H](N1CCN(CCN3CCNC3=O)CC1)C[C@H]2c1ccc(F)cc1` (relative stereo) [Compound 40, reference compound], the IC50 turned out to be 43 nM on dopamine D-2 receptors, 0.71 nM on 5-HT2 receptors and 12 nM on α1 adrenoceptors.

For `O=C1NCCN1CCN1CCN([C@H]2C[C@H](c3ccc(F)cc3)c3cc(C(F)(F)F)ccc32)CC1` (single isomer, unassigned) [(+)-1], the IC50 came to 290 nM on dopamine D-2 receptors, 2 nM at 5-HT2 receptors and 330 nM at α1 adrenoceptors.

On to `Fc1ccc([C@@H]2C[C@@H](N3CCN(CCN4CCCNC4=S)CC3)c3ccc(F)cc32)cc1` (single isomer, unassigned) [(+)-30, (+)-Trans-1-[2-[4-[5-fluoro-3-(4-fluorophenyl)-2,3-dihydro-1H-inden-1-yl]piperazin-1-yl]ethyl]-tetrahydro-2(1H)-pyrimidinethione], for which the IC50 is 0.95 nM at 5-HT2 receptors and 43 nM on α1 adrenoceptors. Besides, the anxiolytic activity entry in the assay on male albino BKW mice was “significant anxiolytic activity (p<0.05) in doses from 0.01 to 1 mg/kg”.

On to `O=C1NCCCN1CCN1CCN([C@@H]2C[C@@H](c3ccc(F)cc3)c3cc(F)ccc32)CC1` (single isomer, unassigned) [(+)-33, (+)-Trans-1-[2-[4-[5-fluoro-3-(4-fluorophenyl)-2,3-dihydro-1H-inden-1-yl]piperazin-1-yl]ethyl]-tetrahydro-2(1H)-pyrimidinone], for which the anxiolytic activity entry with Wistar WU rats was “significant anxiolytic activity (p<0.05) in doses from 0.1 to 1 mg/kg”; with male albino BKW mice, “significant anxiolytic activity (p<0.05) in doses from 0.01 to 1 mg/kg”. Also, the IC50 was 1.1 nM on 5-HT2 receptors and 41 nM at α1 adrenoceptors.

`Fc1ccc([C@H]2C[C@H](N3CCNCC3)c3ccc(Cl)cc32)cc1` (single isomer, unassigned) [(-)-10]: the IC50 amounted to 730 nM at dopamine D-2 receptors, 15 nM on 5-HT2 receptors and 390 nM at α1 adrenoceptors.

With `Fc1ccc([C@@H]2C[C@@H](N3CCN(CCN4CCCNC4=S)CC3)c3ccc(Cl)cc32)cc1` (single isomer, unassigned) [(-)-32, (-)-Trans-1-[2-[4-[5-chloro-3-(4-fluorophenyl)-2,3-dihydro-1H-inden-1-yl]piperazin-1-yl]ethyl]-tetrahydro-2(1H)-pyrimidinethione], the values for the anxiolytic activity result in the assay on Wistar WU rats and in the assay with male albino BKW mice were “significant anxiolytic activity (p<0.05) in doses from 0.1 to 1 mg/kg” and “significant anxiolytic activity (p<0.05) in doses from 0.01 to 1 mg/kg”, respectively. For the same compound, the IC50 on 5-HT2 receptors came to 0.75 nM; at α1 adrenoceptors, 67 nM.

`CC1(C)CNC(=O)N(CCN2CCN([C@@H]3C[C@@H](c4ccc(F)cc4)c4cc(Cl)ccc43)CC2)C1` (single isomer, unassigned) [Compound 35, (+)-Trans-1-[2-[4-[5-chloro-3-(4-fluorophenyl)-2,3-dihydro-1H-inden-1-yl]piperazin-1-yl]ethyl]-5,5-dimethyl-tetrahydro-2(1H)-pyrimidinone]: the IC50 was 150 nM on dopamine D-2 receptors, 4.8 nM on 5-HT2 receptors and 120 nM at α1 adrenoceptors.

For `O=C1NCCN1CCN1CCN([C@@H]2C[C@@H](c3ccc(F)cc3)c3ccccc32)CC1` [Irindalon, reference compound], the IC50 on dopamine D-2 receptors stood at 400 nM. At 5-HT2 receptors, the “affinity to 5-HT2 receptors (in words)” value was “high affinity to 5-HT2 receptors” and the IC50 was 3.4 nM. Further, in the assay with α1 adrenoceptors, the “affinity to α1 adrenoceptors (in words)” value is listed as “significant affinity to oh adrenoceptors” and the IC50 amounted to 16 nM.

Take `Cc1nc2sccn2c(=O)c1CCN1CCC(=C(c2ccc(F)cc2)c2ccc(F)cc2)CC1` [Ritanserin, reference compound]: the IC50 at dopamine D-2 receptors is 12 nM; at α1 adrenoceptors, 47 nM. Moreover, the “effect in the treatment of anxiety and depression” value in assay [1] is “effective in the treatment of anxiety and depression”.
